Measurements: patent US10308639B2, “Phosphatidylinositol 3-kinase inhibitors” (Gilead Sciences, Inc., priority 2014, dated 2019)
pIC50: −log10 of the molar value. Where two headings read alike, the source gives them in different places.

Key:
Type in all cases: biochemical
[1] = target: T1, PI3Kβ (Homo sapiens, UniProt P42338); assay: TR-FRET enzymatic activity assay, PI3Kβ
T1 construct: made in house

[2] = target: T2, PI3Kδ (Homo sapiens, UniProt O00329); assay: TR-FRET enzymatic activity assay, PI3Kδ
T2 construct: made in house

[3] = target: T3, PI3Kγ (Homo sapiens, UniProt P48736); assay: TR-FRET enzymatic activity assay, PI3Kγ; settings: read-out: PI3Kγ IC50
T3 construct: made in house
Procedure, shortened: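 TR-FRET read-out of enzyme activity, run separately for each PI3K isoform.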

[4] = Table 2, TR-FRET, 2x Km ATP, 30 minutes at 25° C.

T1 sequence (P42338 whole entry): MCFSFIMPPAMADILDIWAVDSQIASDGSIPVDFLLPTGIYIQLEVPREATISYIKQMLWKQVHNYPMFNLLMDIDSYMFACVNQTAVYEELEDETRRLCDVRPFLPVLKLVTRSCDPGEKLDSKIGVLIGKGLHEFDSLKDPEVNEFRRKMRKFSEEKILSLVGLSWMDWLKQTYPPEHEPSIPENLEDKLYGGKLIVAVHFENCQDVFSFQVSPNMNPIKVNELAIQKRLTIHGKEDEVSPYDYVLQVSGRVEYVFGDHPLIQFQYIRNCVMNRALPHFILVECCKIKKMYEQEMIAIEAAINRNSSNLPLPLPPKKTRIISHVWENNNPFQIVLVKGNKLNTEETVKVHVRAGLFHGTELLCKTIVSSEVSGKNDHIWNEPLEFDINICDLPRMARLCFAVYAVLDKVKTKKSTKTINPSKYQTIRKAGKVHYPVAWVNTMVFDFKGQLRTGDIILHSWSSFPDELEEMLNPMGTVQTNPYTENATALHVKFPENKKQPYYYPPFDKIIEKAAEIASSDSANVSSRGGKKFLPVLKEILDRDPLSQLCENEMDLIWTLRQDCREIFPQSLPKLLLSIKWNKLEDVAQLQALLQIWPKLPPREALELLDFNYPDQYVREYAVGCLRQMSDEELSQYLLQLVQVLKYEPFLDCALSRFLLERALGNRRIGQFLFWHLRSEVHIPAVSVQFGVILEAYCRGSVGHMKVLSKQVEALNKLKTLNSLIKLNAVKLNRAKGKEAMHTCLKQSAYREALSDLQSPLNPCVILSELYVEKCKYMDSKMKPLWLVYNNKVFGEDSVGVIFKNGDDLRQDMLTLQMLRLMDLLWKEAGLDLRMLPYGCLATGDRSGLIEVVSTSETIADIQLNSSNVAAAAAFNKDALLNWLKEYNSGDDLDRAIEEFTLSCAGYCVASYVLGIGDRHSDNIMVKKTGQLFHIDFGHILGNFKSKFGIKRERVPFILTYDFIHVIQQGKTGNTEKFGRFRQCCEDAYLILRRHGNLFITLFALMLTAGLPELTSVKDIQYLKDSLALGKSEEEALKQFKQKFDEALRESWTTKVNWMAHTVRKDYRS
T1 sequence (P27986 whole entry partner): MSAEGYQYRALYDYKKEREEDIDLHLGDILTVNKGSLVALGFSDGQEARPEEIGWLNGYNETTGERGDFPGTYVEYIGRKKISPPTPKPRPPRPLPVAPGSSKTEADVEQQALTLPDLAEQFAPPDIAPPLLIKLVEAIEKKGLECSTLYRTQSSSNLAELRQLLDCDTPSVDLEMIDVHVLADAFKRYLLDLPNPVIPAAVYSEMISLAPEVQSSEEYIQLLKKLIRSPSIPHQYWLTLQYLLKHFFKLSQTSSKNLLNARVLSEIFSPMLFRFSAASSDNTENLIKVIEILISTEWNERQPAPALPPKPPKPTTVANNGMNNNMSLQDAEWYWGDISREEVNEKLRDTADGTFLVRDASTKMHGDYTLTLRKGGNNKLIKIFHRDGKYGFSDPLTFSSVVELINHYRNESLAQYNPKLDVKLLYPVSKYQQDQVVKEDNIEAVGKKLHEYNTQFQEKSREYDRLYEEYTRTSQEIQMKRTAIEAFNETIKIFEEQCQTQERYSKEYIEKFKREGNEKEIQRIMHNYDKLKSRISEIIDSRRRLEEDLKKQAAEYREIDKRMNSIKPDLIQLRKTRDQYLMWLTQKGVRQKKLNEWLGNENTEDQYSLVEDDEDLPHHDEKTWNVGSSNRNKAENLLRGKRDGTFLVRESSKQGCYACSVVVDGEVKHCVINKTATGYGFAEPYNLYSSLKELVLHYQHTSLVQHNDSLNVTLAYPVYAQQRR
T2 sequence (O00329 whole entry): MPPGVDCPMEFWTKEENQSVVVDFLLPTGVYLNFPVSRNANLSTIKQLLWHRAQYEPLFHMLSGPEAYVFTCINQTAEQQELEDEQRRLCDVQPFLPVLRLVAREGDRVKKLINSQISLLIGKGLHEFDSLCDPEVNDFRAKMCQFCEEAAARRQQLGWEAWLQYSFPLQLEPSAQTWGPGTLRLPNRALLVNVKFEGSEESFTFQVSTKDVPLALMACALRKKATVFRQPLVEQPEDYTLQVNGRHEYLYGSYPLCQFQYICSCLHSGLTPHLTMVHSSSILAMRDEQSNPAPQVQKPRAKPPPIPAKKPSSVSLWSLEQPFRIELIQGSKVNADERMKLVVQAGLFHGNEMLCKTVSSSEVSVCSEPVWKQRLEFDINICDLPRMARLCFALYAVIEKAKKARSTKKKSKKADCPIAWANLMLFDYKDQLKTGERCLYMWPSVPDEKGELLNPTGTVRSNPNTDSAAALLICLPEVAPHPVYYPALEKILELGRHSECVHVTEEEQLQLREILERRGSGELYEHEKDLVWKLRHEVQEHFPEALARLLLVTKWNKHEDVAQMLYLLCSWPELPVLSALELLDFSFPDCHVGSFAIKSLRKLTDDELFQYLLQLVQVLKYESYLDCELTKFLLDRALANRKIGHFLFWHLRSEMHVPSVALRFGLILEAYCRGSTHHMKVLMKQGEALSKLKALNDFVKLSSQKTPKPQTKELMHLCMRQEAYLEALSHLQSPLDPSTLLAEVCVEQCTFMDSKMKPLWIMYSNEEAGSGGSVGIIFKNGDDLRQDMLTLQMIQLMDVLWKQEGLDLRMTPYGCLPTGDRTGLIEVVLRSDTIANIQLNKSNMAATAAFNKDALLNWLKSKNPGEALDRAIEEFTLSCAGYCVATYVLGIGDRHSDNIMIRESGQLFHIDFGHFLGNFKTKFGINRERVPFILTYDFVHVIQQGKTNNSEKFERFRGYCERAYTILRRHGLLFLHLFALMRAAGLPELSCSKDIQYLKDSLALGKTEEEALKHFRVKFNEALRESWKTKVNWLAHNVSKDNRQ
T2 sequence (P27986 whole entry partner): as the sequence (P27986 whole entry partner) above
T3 sequence (P48736 whole entry): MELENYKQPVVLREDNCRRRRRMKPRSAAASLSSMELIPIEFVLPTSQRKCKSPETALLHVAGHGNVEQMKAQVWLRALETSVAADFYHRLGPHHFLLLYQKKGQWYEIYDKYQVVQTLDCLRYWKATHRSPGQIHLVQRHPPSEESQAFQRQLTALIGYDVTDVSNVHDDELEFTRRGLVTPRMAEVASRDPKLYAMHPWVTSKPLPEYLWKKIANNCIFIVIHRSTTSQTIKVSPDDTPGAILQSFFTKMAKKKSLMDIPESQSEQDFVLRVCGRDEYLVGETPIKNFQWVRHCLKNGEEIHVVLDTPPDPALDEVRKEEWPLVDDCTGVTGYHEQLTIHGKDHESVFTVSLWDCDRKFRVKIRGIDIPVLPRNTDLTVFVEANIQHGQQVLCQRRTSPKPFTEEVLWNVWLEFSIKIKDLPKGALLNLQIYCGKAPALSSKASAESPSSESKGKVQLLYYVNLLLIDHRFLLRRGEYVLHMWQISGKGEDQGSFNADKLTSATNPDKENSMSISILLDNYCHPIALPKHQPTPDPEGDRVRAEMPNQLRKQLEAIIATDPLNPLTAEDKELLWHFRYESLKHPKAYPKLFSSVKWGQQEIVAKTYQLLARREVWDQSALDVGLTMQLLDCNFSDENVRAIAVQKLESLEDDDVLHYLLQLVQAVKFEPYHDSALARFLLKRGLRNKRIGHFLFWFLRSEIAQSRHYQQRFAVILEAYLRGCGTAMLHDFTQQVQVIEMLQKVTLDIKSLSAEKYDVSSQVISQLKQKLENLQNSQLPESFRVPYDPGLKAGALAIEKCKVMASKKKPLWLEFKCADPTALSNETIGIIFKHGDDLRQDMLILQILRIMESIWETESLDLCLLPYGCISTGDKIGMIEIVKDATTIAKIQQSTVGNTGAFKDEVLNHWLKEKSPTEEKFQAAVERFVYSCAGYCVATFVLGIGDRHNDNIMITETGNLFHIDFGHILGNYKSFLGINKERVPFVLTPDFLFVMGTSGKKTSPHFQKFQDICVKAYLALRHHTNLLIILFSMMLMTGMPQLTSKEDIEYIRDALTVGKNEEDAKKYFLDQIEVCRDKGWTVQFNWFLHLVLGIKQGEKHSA

| Structure (SMILES) | pIC50 ([1]; Table 2a, same assay) | pIC50 ([2]; Table 2a, same assay) | pIC50 ([3]; Table 2a, same assay) | pIC50 [1, 4] | pIC50 [2, 4] | pIC50 [3, 4] | pIC50 [3] |
| --- | --- | --- | --- | --- | --- | --- | --- |
| C[C@H](Nc1nc(N)nc(N)c1Cl)c1nc2cccc(Cl)c2c(=O)n1-c1cc(N)[nH]n1 [Compound 199, (S)-3-(5-amino-1H-pyrazol-3-yl)-5-chloro-2-(1-((2,6-diamino-5-chloropyrimidin-4-yl)amino)ethyl)quinazolin-4(3H)-one] | 8.15 | 7.80 | 5.27 | – | – | – | – |
| C[C@H](Nc1ncnc2scnc12)c1nc2cccc(Cl)c2c(=O)n1-c1ccc[nH]1 [Compound 290, (S)-5-chloro-3-(1H-pyrrol-2-yl)-2-(1-(thiazolo[5,4-d]pyrimidin-7-ylamino)ethyl)quinazolin-4(3H)-one] | 7.16 | 9.30 | 7.14 | – | – | – | – |
| CC[C@H](Nc1nc(N)nc2[nH]nc(Br)c12)c1nc2cccc(C#N)c2c(=O)n1-c1cn[nH]c1 [Compound 79, (S)-2-(1-((6-amino-3-bromo-1H-pyrazolo[3,4-d]pyrimidin-4-yl)amino)propyl)-4-oxo-3-(1H-pyrazol-4-yl)-3,4-dihydroquinazoline-5-carbonitrile] | – | – | – | 6.19 | 6.47 | 5.05 | – |
| C[C@H](Nc1ncnc2scnc12)c1nc2c(Cl)ccc(Cl)c2c(=O)n1-c1n[nH]cc1Br [Compound 85, (S)-3-(4-bromo-1H-pyrazol-3-yl)-5,8-dichloro-2-(1-(thiazolo[5,4-d]pyrimidin-7-ylamino)ethyl)quinazolin-4(3H)-one] | – | – | – | 6.77 | 8.40 | 5.05 | – |
| C[C@H](Nc1nc(N)nc(N)c1C#N)c1nc2ccc(F)c(Cl)c2c(=O)n1-c1cn[nH]c1 [Compound 264, (S)-2,4-diamino-6-((1-(5-chloro-6-fluoro-4-oxo-3-(1H-pyrazol-4-yl)-3,4-dihydroquinazolin-2-yl)ethyl)amino)pyrimidine-5-carbonitrile] | 8.10 | 8.70 | 7.15 | – | – | – | – |
| Nc1nc(N)c(Cl)c(N[C@H](c2nc3cccc(C(F)(F)F)c3c(=O)n2-c2cc[nH]n2)C2CC2)n1 [Compound 210, (S)-2-(cyclopropyl((2,6-diamino-5-chloropyrimidin-4-yl)amino)methyl)-3-(1H-pyrazol-3-yl)-5-(trifluoromethyl)quinazolin-4(3H)-one] | 7.43 | 7.72 | 5.18 | – | – | – | – |
| C[C@H](Nc1nc(N)nc(C(F)F)c1C#N)c1nc2cccc(C(F)F)c2c(=O)n1-c1cc[nH]n1 [Compound 176, (S)-2-amino-4-(difluoromethyl)-6-((1-(5-(difluoromethyl)-4-oxo-3-(1H-pyrazol-3-yl)-3,4-dihydroquinazolin-2-yl)ethyl)amino)pyrimidine-5-carbonitrile] | 7.59 | 7.74 | 5.70 | – | – | – | – |
| CC[C@H](Nc1ncnc2[nH]cnc12)c1nc2c(Cl)ccc(Cl)c2c(=O)n1-c1cn[nH]c1 [Compound 57, (S)-2-(1-((9H-purin-6-yl)amino)propyl)-5,8-dichloro-3-(1H-pyrazol-4-yl)quinazolin-4(3H)-one] | – | – | – | 6.42 | 7.54 | – | < 5.00 |
| N#Cc1c(N[C@H](c2nc3c(F)ccc(Cl)c3c(=O)n2-c2cc[nH]n2)C2CC2)nc(N)nc1C(F)F [Compound 194, (S)-2-amino-4-(((5-chloro-8-fluoro-4-oxo-3-(1H-pyrazol-3-yl)-3,4-dihydroquinazolin-2-yl)(cyclopropyl)methyl)amino)-6-(difluoromethyl)pyrimidine-5-carbonitrile] | 7.64 | 7.70 | 5.66 | – | – | – | – |
| CC[C@H](Nc1ncnc2scnc12)c1nc2c(Cl)ccc(Cl)c2c(=O)n1-c1cn[nH]c1 [Compound 39, (S)-5,8-dichloro-3-(1H-pyrazol-4-yl)-2-(1-(thiazolo[5,4-d]pyrimidin-7-ylamino)propyl)quinazolin-4(3H)-one] | – | – | – | 6.77 | 7.66 | 5.33 | – |
| C[C@H](Nc1nc(N)nc(N)c1C#N)c1nc2cccc(Cl)c2c(=O)n1-c1ccc[nH]1 [Compound 289, (S)-2,4-diamino-6-((1-(5-chloro-4-oxo-3-(1H-pyrrol-2-yl)-3,4-dihydroquinazolin-2-yl)ethyl)amino)pyrimidine-5-carbonitrile] | 8.30 | 9.70 | 7.92 | – | – | – | – |
| C[C@H](Nc1ncnn2ccnc12)c1nc2cccc(Cl)c2c(=O)n1-c1ccc[nH]1 [Compound 291, (S)-5-chloro-2-(1-(imidazo[2,1-f][1,2,4]triazin-4-ylamino)ethyl)-3-(1H-pyrrol-2-yl)quinazolin-4(3H)-one] | 6.85 | 9.00 | 6.77 | – | – | – | – |
| CC[C@H](Nc1nc(N)nc(N)c1C#N)c1nc2cccc(C#N)c2c(=O)n1-c1cc[nH]n1 [Compound 97, (S)-2-(1-((2,6-diamino-5-cyanopyrimidin-4-yl)amino)propyl)-4-oxo-3-(1H-pyrazol-3-yl)-3,4-dihydroquinazoline-5-carbonitrile] | – | – | – | 7.77 | 7.80 | 5.43 | – |
| C[C@H](Nc1nc(N)nc(N)c1Cl)c1nc2ccc(F)c(Cl)c2c(=O)n1-c1cn[nH]c1 [Compound 263, (S)-5-chloro-2-(1-((2,6-diamino-5-chloropyrimidin-4-yl)amino)ethyl)-6-fluoro-3-(1H-pyrazol-4-yl)quinazolin-4(3H)-one] | 6.72 | 7.70 | 5.92 | – | – | – | – |
| CC[C@H](NC(=O)c1cnn2cccnc12)c1nc2c(Cl)ccc(Cl)c2c(=O)n1-c1cn[nH]c1 [Compound 119, (S)—N-(1-(5,8-dichloro-4-oxo-3-(1H-pyrazol-4-yl)-3,4-dihydroquinazolin-2-yl)propyl)pyrazolo[1,5-a]pyrimidine-3-carboxamide] | – | – | – | 6.44 | 6.77 | 5.14 | – |
| CC[C@H](Nc1nc(N)nc(N)c1C#N)c1nc2c(Cl)cc(F)cc2c(=O)n1-c1cc[nH]n1 [Compound 258, (S)-2,4-diamino-6-((1-(8-chloro-6-fluoro-4-oxo-3-(1H-pyrazol-3-yl)-3,4-dihydroquinazolin-2-yl)propyl)amino)pyrimidine-5-carbonitrile] | 8.15 | 8.52 | 5.41 | – | – | – | – |
| Cc1nc(N)nc(N[C@H](c2nc3cccc(Cl)c3c(=O)n2-c2cn[nH]c2)C2CC2)c1C#N [Compound 27, (S)-2-amino-4-(((5-chloro-4-oxo-3-(1H-pyrazol-4-yl)-3,4-dihydroquinazolin-2-yl)(cyclopropyl)methyl)amino)-6-methylpyrimidine-5-carbonitrile] | – | – | – | 8.70 | 9.15 | 7.15 | – |
| Nc1nc(N)c(Cl)c(N[C@H](c2nc3c(C(F)F)cc(F)cc3c(=O)n2-c2cc[nH]n2)C2CC2)n1 [Compound 144, (S)-2-(cyclopropyl((2,6-diamino-5-chloropyrimidin-4-yl)amino)methyl)-8-(difluoromethyl)-6-fluoro-3-(1H-pyrazol-3-yl)quinazolin-4(3H)-one] | 6.89 | 6.72 | < 5.00 | – | – | – | – |
| CC[C@H](Nc1nc(N)nc(Cl)c1C#N)c1nc2c(C#N)cccc2c(=O)n1-c1cc[nH]n1 [Compound 96, (S)-2-(1-((2-amino-6-chloro-5-cyanopyrimidin-4-yl)amino)propyl)-4-oxo-3-(1H-pyrazol-3-yl)-3,4-dihydroquinazoline-8-carbonitrile] | – | – | – | 7.66 | 7.92 | – | < 5.00 |
| C[C@H](Nc1nc(N)nc(N)c1Cl)c1nc2c(Cl)ccc(Cl)c2c(=O)n1-c1cc[nH]n1 [Compound 69, (S)-5,8-dichloro-2-(1-((2,6-diamino-5-chloropyrimidin-4-yl)amino)ethyl)-3-(1H-pyrazol-3-yl)quinazolin-4(3H)-one] | – | – | – | 7.89 | 8.22 | – | < 5.00 |
| CC[C@H](Nc1nc(Cl)nc2[nH]ncc12)c1nc2c(Cl)ccc(Cl)c2c(=O)n1-c1cc[nH]n1 [Compound 82, (S)-5,8-dichloro-2-(1-((6-chloro-1H-pyrazolo[3,4-d]pyrimidin-4-yl)amino)propyl)-3-(1H-pyrazol-3-yl)quinazolin-4(3H)-one] | – | – | – | 5.33 | 5.39 | – | < 5.00 |
| C[C@H](Nc1ncnc2sncc12)c1nc2cccc(Cl)c2c(=O)n1-c1cc[nH]n1 [Compound 167, (S)-5-chloro-2-(1-(isothiazolo[5,4-d]pyrimidin-4-ylamino)ethyl)-3-(1H-pyrazol-3-yl)quinazolin-4(3H)-one] | 6.96 | 7.74 | < 5.00 | – | – | – | – |
| Nc1nc(N)c(Cl)c(N[C@H](c2nc3c(Cl)cc(F)cc3c(=O)n2-c2c[nH]cn2)C2CC2)n1 [Compound 280, (S)-8-chloro-2-(cyclopropyl((2,6-diamino-5-chloropyrimidin-4-yl)amino)methyl)-6-fluoro-3-(1H-imidazol-4-yl)quinazolin-4(3H)-one] | 6.43 | 7.32 | < 5.00 | – | – | – | – |
| CC[C@H](Nc1nc(F)nc2[nH]cnc12)c1nc2c(Cl)ccc(Cl)c2c(=O)n1-c1cc[nH]n1 [Compound 53, (S)-5,8-dichloro-2-(1-((2-fluoro-9H-purin-6-yl)amino)propyl)-3-(1H-pyrazol-3-yl)quinazolin-4(3H)-one] | – | – | – | 7.12 | 7.89 | – | < 5.00 |
| CC[C@H](NC(=O)c1nccnc1N)c1nc2c(Cl)ccc(Cl)c2c(=O)n1-c1cn[nH]c1 [Compound 122, (S)-3-amino-N-(1-(5,8-dichloro-4-oxo-3-(1H-pyrazol-4-yl)-3,4-dihydroquinazolin-2-yl)propyl)pyrazine-2-carboxamide] | – | – | – | 6.19 | 6.70 | – | < 5.00 |
| N#Cc1c(N[C@H](c2nc3cccc(C(F)F)c3c(=O)n2-c2cc[nH]n2)C2CC2)nc(N)nc1C(F)F [Compound 177, (S)-2-amino-4-((cyclopropyl(5-(difluoromethyl)-4-oxo-3-(1H-pyrazol-3-yl)-3,4-dihydroquinazolin-2-yl)methyl)amino)-6-(difluoromethyl)pyrimidine-5-carbonitrile] | 7.54 | 7.59 | 5.64 | – | – | – | – |
